Test results: US20230126447A1, “OCULAR DRUG DEPOT FOR COMPLEMENT-MEDIATED DISORDERS” (priority 2020, published 2023)
Where two headings read alike, the source gives them in different places.

Assay: Ocular tissue distribution and pharmacokinetics, 7.5 and 15 mg/kg oral, pigmented Dutch Belted rabbits (Example 7)
Format: in vivo
Conditions: for Mean retina concentration / Mean plasma concentration / concentration at 0 h / concentration at 1 h / concentration at 6 h / concentration at 24 h / concentration at 96 h / concentration at 168 h / concentration at 12 h / concentration at 240 h: DB rabbits; for Tmax / concentration at 0 h / concentration at 1 h / concentration at 6 h / concentration at 24 h / concentration at 96 h / concentration at 168 h / concentration at 12 h / concentration at 240 h / MRT last: Dutch Belted, rabbit; for concentration at 0 h / concentration at 1 h / concentration at 6 h / concentration at 24 h / concentration at 96 h / concentration at 168 h / concentration at 12 h / concentration at 240 h: oral
Method: For Group 1, two animals/time point were sacrificed via an overdose of sodium pentobarbital at approximately 1, 6, 12, 24, 96, 168, and 240 hours postdose. Blood (approximately 2 mL) was collected from all animals at sacrifice into tubes containing K2EDTA via exsanguination (cardiac puncture).
For Groups 2 through 4, blood (approximately 2 mL) was collected via a jugular vein using a syringe and needle and was transferred into tubes containing K2EDTA at approximately 12 hours after the a.m. dose on Day 15 from the two animals designated for sacrifice at approximately 240 hours after the a.m. dose on Day 15.
For Groups 2 through 4, two animals/group/time point were sacrificed via an overdose of sodium pentobarbital prior to dosing on Day 15 and at approximately 1, 6, 24, 96, 168, and 240 hours after the a.m. dose on Day 15. Blood (approximately 2 mL) was collected from all animals at sacrifice into tubes containing K2EDTA via exsanguination (cardiac puncture).
Blood was maintained on wet ice, in chilled cryoracks, or at approximately 5° C. prior to centrifugation to obtain plasma. Centrifugation began within 1 hour of collection (Deviation). Plasma was placed into 96-well tubes with barcode labels. Plasma was maintained on dry ice prior to storage at approximately −70° C.
At the time of sacrifice, both eyes were enucleated, and the following tissues were collected. Each eye was flash-frozen in liquid nitrogen for 15 to 20 seconds. The enucleated eye was placed on dry ice or stored at approximately −70° C. for at least 2 hours. Within approximately 3 days, the frozen matrices were collected as right and left eyes for each matrix into the specific tube type listed.
At the time of frozen collection, the ocular tissues were rinsed with saline and blotted dry (as appropriate), weighed, and placed on dry ice. All ocular tissues were collected as single samples.

[1] = Choroid-RPE (OU), male DB rabbits, Group 1, Day 1, […] single oral dose
[2] = Choroid-RPE (OU), male DB rabbits, Group 2, Day 15, […] BID oral (15 mg/kg/day)
[3] = Choroid-RPE (OU), male DB rabbits, Group 3, Day 15, 15 mg/kg/dose BID oral (30 mg/kg/day)
[4] = choroid-RPE, 15 mg/kg, Day 15, 15 mg/kg BID, read-out: Mean Choroid-RPE Concentration
[5] = choroid-RPE, […], Day 1, […] single dose, read-out: Mean Choroid-RPE Concentration
[6] = choroid-RPE, […], Day 15, […] BID, read-out: Mean Choroid-RPE Concentration
[7] = iris-ciliary body (ICB), ICB (OU), male DB rabbits, Group 1, Day 1, 7.5 mg/kg single oral dose
[8] = iris-ciliary body, 15 mg/kg, Day 15, 15 mg/kg BID, read-out: Mean Iris-Ciliary Concentration
[9] = iris-ciliary body, […], Day 1, […] single dose, read-out: Mean Iris-Ciliary Concentration
[10] = iris-ciliary body, […], Day 15, […] BID, read-out: Mean Iris-Ciliary Concentration
[11] = plasma, 15 mg/kg, Day 15, 15 mg/kg BID, read-out: Mean Plasma Concentration
[12] = plasma, […], Day 1, […] single dose, read-out: Mean Plasma Concentration
[13] = plasma, […], Day 15, […] BID, read-out: Mean Plasma Concentration
[14] = retina, 15 mg/kg, Day 15, 15 mg/kg BID, read-out: Mean Retina Concentration
[15] = retina, […], Day 15, […] BID, read-out: Mean Retina Concentration

For `CC(=O)c1nn(CC(=O)N2C[C@H](F)C[C@H]2C(=O)Nc2cccc(Br)n2)c2ccc(-c3cnc(C)nc3)cc12` [Compound 1, (2S,4R)-1-(2-(3-Acetyl-5-(2-methylpyrimidin-5-yl)-1H-indazol-1-yl)acetyl)-N-(6-bromopyridin-2-yl)-4-fluoropyrrolidine-2-carboxamide], the “Ocular tissue exposure in melanin-containing tissues (ICB and choroid-RPE), DB compared to NZW rabbits” value (30 mg/kg/day (15 mg/kg/dose, BID)) was “greater than 10 fold”, the AUC0-12 [1] was 5550 ng·h/g and the AUC0-240 [1] was 14000 ng·h/g. For the same compound, the AUC(0-24) [1] was 7580 ng·h/g, the AUC(0-inf) [1] was 14500 ng·h/g and the AUC(0-t) [1] was 14000 ng·h/g. The Ctrough [1] was 260 ng/g, the “DN AUC0-12” value [1] was 740 (h*ng/g)/(mg/kg/dose) and the “DN AUC0-24” value [1] was 1010 (h*ng/g)/(mg/kg/day). For the same compound, the “DN Cmax” value [1] was 96.8 (ng/g)/(mg/kg/day, the AUC0-12 [2] was 18500 ng·h/g and the AUC0-240 [2] was 89100 ng·h/g. For the same compound, the AUC(0-24) [2] was 30100 ng·h/g, the AUC(0-t) [2] was 89100 ng·h/g and the Ctrough [2] was 1250 ng/g. The “DN AUC0-12” value [2] was 2470 (h*ng/g)/(mg/kg/dose), the “DN AUC0-24” value [2] was 4020 (h*ng/g)/(mg/kg/day) and the “DN Cmax” value [2] was 267 (ng/g)/(mg/kg/day. It also gave an AUC0-12 [3] of 28200 ng·h/g, an AUC0-240 [3] of 151000 ng·h/g and an AUC(0-24) [3] of 47500 ng·h/g. For the same compound, the AUC(0-t) [3] was 151000 ng·h/g, the Ctrough [3] was 1740 ng/g and the “DN AUC0-12” value [3] was 1880 (h*ng/g)/(mg/kg/dose). The “DN AUC0-24” value [3] was 3170 (h*ng/g)/(mg/kg/day), the “DN Cmax” value [3] was 265 (ng/g)/(mg/kg/day and the “Mean retina concentration” value (Day 1, […] single dose, 24 hr) was “BLQ”. For the same compound, the “Mean plasma concentration” value (Day 1, […] single dose, 96 hr) was “BLQ”, the “Mean retina concentration” value (Day 1, […] single dose, 96 hr) was “BLQ” and the “Mean plasma concentration” value (Day 1, […] single dose, 168 hr) was “BLQ”. For the same compound, the “Mean retina concentration” value (Day 1, […] single dose, 168 hr) was “BLQ”, the “Mean plasma concentration” value (Day 1, […] single dose, 240 hr) was “BLQ” and the “Mean retina concentration” value (Day 1, […] single dose, 240 hr) was “BLQ”. For the same compound, the “Mean plasma concentration” value (Day 15, 15 mg/kg BID, 96 hr) was “BLQ”, the “Mean plasma concentration” value (Day 15, 15 mg/kg BID, 168 hr) was “BLQ” and the “Mean plasma concentration” value (Day 15, 15 mg/kg BID, 240 hr) was “BLQ”. For the same compound, the “Mean plasma concentration” value (Day 15, […] BID, 96 hr) was “BLQ”, the “Mean plasma concentration” value (Day 15, […] BID, 168 hr) was “BLQ” and the “Mean plasma concentration” value (Day 15, […] BID, 240 hr) was “BLQ”. It also gave a Tmax (choroid-RPE (choroid-retinal pigment epithelium), Choroid-RPE (OU), male DB rabbits, Group 1, Day 1, 7.5 mg/kg single oral dose) of 1 h, a concentration at 0 h [4] of 1540 ng/g and a concentration at 1 h [4] of 3970 ng/g. The concentration at 6 h [4] was 1880 ng/g, the concentration at 24 h (choroid-RPE, 15 mg/kg, Day 15, 15 mg/kg BID, 24 hr, read-out: Mean Choroid-RPE Concentration) was 1470 ng/g and the concentration at 96 h (choroid-RPE, 15 mg/kg, Day 15, 15 mg/kg BID, 96 hr, read-out: Mean Choroid-RPE Concentration) was 441 ng/g. It also gave a concentration at 168 h (choroid-RPE, 15 mg/kg, Day 15, 15 mg/kg BID, 168 hr, read-out: Mean Choroid-RPE Concentration) of 195 ng/g, a concentration at 1 h [5] of 726 ng/g and a concentration at 6 h [5] of 472 ng/g. For the same compound, the concentration at 12 h [5] was 260 ng/g, the concentration at 24 h (choroid-RPE, […], Day 1, […] single dose, 24 hr, read-out: Mean Choroid-RPE Concentration) was 78 ng/g and the concentration at 96 h (choroid-RPE, […], Day 1, […] single dose, 96 hr, read-out: Mean Choroid-RPE Concentration) was 28.4 ng/g. It also gave a concentration at 168 h (choroid-RPE, […], Day 1, […] single dose, 168 hr, read-out: Mean Choroid-RPE Concentration) of 19.4 ng/g, a concentration at 0 h [6] of 695 ng/g and a concentration at 1 h [6] of 2000 ng/g. For the same compound, the concentration at 6 h [6] was 1530 ng/g, the concentration at 24 h (choroid-RPE, […], Day 15, […] BID, 24 hr, read-out: Mean Choroid-RPE Concentration) was 685 ng/g and the concentration at 96 h (choroid-RPE, […], Day 15, […] BID, 96 hr, read-out: Mean Choroid-RPE Concentration) was 238 ng/g. For the same compound, the concentration at 168 h (choroid-RPE, […], Day 15, […] BID, 168 hr, read-out: Mean Choroid-RPE Concentration) was 183 ng/g, the concentration at 240 h (choroid-retinal pigment epithelium (choroid-RPE), 15 mg/kg, Day 15, 15 mg/kg BID, 240 hr, read-out: Mean Choroid-RPE Concentration) was 119 ng/g and the concentration at 240 h (choroid-retinal pigment epithelium (choroid-RPE), […], Day 1, […] single dose, 240 hr, read-out: Mean Choroid-RPE Concentration) was 5.23 ng/g. The concentration at 240 h (choroid-retinal pigment epithelium (choroid-RPE), […], Day 15, […] BID, 240 hr, read-out: Mean Choroid-RPE Concentration) was 111 ng/g, the MRT last (choroid-retinal pigment epithelium (choroid-RPE), Choroid-RPE (OU), male DB rabbits, Group 1, Day 1, 7.5 mg/kg single oral dose) was 42.8 h and the Tmax (choroid-retinal pigment epithelium (choroid-RPE), Choroid-RPE (OU), male DB rabbits, Group 2, Day 15, 7.5 mg/kg/dose BID oral (15 mg/kg/day)) was 1 h. It also gave a Tmax (choroid-retinal pigment epithelium (choroid-RPE), Choroid-RPE (OU), male DB rabbits, Group 3, Day 15, 15 mg/kg/dose BID oral (30 mg/kg/day)) of 1 h, an MRT last [7] of 5.59 h and a Tmax [7] of 1 h. For the same compound, the Tmax (iris-ciliary body (ICB), ICB (OU), male DB rabbits, Group 3, Day 15, 15 mg/kg/dose BID oral (30 mg/kg/day)) was 1 h, the concentration at 1 h [8] was 2050 ng/g and the concentration at 6 h [8] was 939 ng/g. It also gave a concentration at 24 h (iris-ciliary body, 15 mg/kg, Day 15, 15 mg/kg BID, 24 hr, read-out: Mean Iris-Ciliary Concentration) of 460 ng/g, a concentration at 1 h [9] of 435 ng/g and a concentration at 6 h [9] of 163 ng/g. For the same compound, the concentration at 24 h (iris-ciliary body, […], Day 1, […] single dose, 24 hr, read-out: Mean Iris-Ciliary Concentration) was 31.4 ng/g, the concentration at 1 h [10] was 943 ng/g and the concentration at 6 h [10] was 634 ng/g. It also gave a concentration at 24 h (iris-ciliary body, […], Day 15, […] BID, 24 hr, read-out: Mean Iris-Ciliary Concentration) of 184 ng/g, a concentration at 0 h [11] of 36.4 ng/mL and a concentration at 1 h [11] of 910 ng/mL. For the same compound, the concentration at 6 h [11] was 130 ng/mL, the concentration at 12 h [11] was 54.3 ng/mL and the concentration at 24 h (plasma, 15 mg/kg, Day 15, 15 mg/kg BID, 24 hr, read-out: Mean Plasma Concentration) was 10.5 ng/mL. The concentration at 1 h [12] was 423 ng/mL, the concentration at 6 h [12] was 25.1 ng/mL and the concentration at 12 h [12] was 14.8 ng/mL. For the same compound, the concentration at 24 h (plasma, […], Day 1, […] single dose, 24 hr, read-out: Mean Plasma Concentration) was 3.26 ng/mL, the concentration at 0 h [13] was 22.2 ng/mL and the concentration at 1 h [13] was 440 ng/mL. It also gave a concentration at 6 h [13] of 90.1 ng/mL, a concentration at 12 h [13] of 29.6 ng/mL and a concentration at 24 h (plasma, […], Day 15, […] BID, 24 hr, read-out: Mean Plasma Concentration) of 6.64 ng/mL. The concentration at 6 h (retina, 15 mg/kg BID, Day 15, 15 mg/kg BID, read-out: Mean Retina Concentration) was 115 ng/g, the concentration at 24 h (retina, 15 mg/kg BID, Day 15, 15 mg/kg BID, 24 hr, read-out: Mean Retina Concentration) was 139 ng/g and the concentration at 96 h (retina, 15 mg/kg BID, Day 15, 15 mg/kg BID, 96 hr, read-out: Mean Retina Concentration) was 31.4 ng/g. The concentration at 168 h (retina, 15 mg/kg BID, Day 15, 15 mg/kg BID, 168 hr, read-out: Mean Retina Concentration) was 22.5 ng/g, the concentration at 240 h (retina, 15 mg/kg BID, Day 15, 15 mg/kg BID, 240 hr, read-out: Mean Retina Concentration) was 19.7 ng/g and the concentration at 0 h [14] was 45 ng/g. It also gave a concentration at 1 h [14] of 1120 ng/g, a concentration at 1 h (retina, […], Day 1, […] single dose, read-out: Mean Retina Concentration) of 188 ng/g and a concentration at 0 h [15] of 20.7 ng/g. It also gave a concentration at 1 h [15] of 306 ng/g.
